Patent US11478526B2, “Methods of reducing neuroinflammation or toxicity induced by amyloid beta (abeta) using glucocorticoid induced leucine zipper (GILZ) analog peptides” (INDIANA UNIVERSITY RESEARCH AND TECHNOLOGY CORPORATION, priority 2016, dated 2022)
pIC50: −log10 of the molar value. Like-named read-outs stand apart in the source and are kept apart here.

Tests used:
[1] = tested on: LPS induced neuroinflammation; assay: LPS induced neuroinflammation: cytokine ELISA of brain homogenates; format: in vivo, mouse; conditions: 25 mg/kg i.v. alternate days, day 7
Procedure: (§1) Animals and lipopolysaccharide induced neuroinflammation: Male C57/6J mice weighing 32 to 37 grams were housed five per cage at a temperature of 22±2° C. with 12 hour light/12 hour dark cycles with free access to laboratory food and water. Lipopolysaccharides (LPS) from Escherichia coli 026:B6, =10,000 EU/mg, purified by phenol extraction was purchased from Sigma (Sigma Aldrich, Mo., USA). The mice were randomly divided into seven groups: LPS, LPS+GA-1 or GA-2 or CP-1 or CP-2 or CP-3 or TAT. The LPS was administered intraperitoneally at […] in 100 μl of sterile saline followed by corn oil in the morning daily for six days. The GA or CP was administered intravenously at 25 mg/kg in 100 μl of sterile saline on alternate days. Additional control group included mice receiving saline alone. All animals were sacrificed on day 7.
Enzyme linked immunosorbent assay for cytokines: Frozen brain tissue was homogenized in RIPA lysis buffer (50 mmol/LTris-HCl, pH 6.8, 150 mmol/L NaCl, 5 mmol/L EDTA, 0.5% sodium deoxycholate, 0.5% NP-40) supplemented with a cocktail containing protease and phosphatase inhibitors (Chemicon, Millipore) on ice and then centrifuged at 16,000×g for 30 min. Supernatant was stored at −80° C. until further analysis. […]

[2] = tested on: LPS induced neuroinflammation; assay: LPS induced neuroinflammation: immunohistochemistry of hippocampal gliosis; format: in vivo, mouse; conditions: 25 mg/kg intravenously on alternate days; for CD11b+p65+ glial cells in the hippocampus: day 7; for GFAP+ astroglial cells in the hippocampus / Iba1+ microglial cells in the hippocampus: day 7, vs control peptide or untreated
Procedure: as §1
Histology and immunohistochemistry: The mice were sacrificed on day 7 by intra-cardial perfusion of 25 ml of 0.9% saline. Brain from each mouse was removed, one half was immediately frozen and the other half fixed in 4% paraformaldehyde for 24 h and later in 10% neutral buffered formalin for additional 24 h. Fixed tissues were subsequently processed for paraffin embedding. Tissue sections (5μ) stained with Harris's haematoxylin and counterstained with eosin were assessed for inflammation.
Immunohistochemistry: Serial 5μ thick coronal sections of each brain specimen were immunostained for markers of microglial cells, astrocytes and NF-κB p65. Briefly, after deparaffinization and hydration sections were subjected to antigen retrieval by microwave incubation in 10 mM sodium citrate buffer (pH 6.0) followed by sequential incubation in 30% hydrogen peroxide and blocking buffer (Enzo biosciences,) to reduce non-specific binding. The sections were then stained with the following primary monoclonal antibodies from EMD Millipore Corporation, Temecula, Calif., USA: anti-Iba-1 (AIF1 clone: Cat. #MABN92) or anti-glial fibrillary acidic protein (GFAP) clone GA5 (Cat. #MAB3402, Millipore) or anti-CD11b (Cat. #MABF513) clone M1/70 or anti-NF-κB p65 subunit clone 12H11 (Cat. #MAB3026). For mono-staining of Iba-1 and GFAP, detection was with the use of IHC select immunoperoxidase secondary detection system (Millipore). The peroxidase conjugated streptavidin-biotin method was used and brown staining was considered positive. For dual staining of CD11b and NF-κB p65 detection was achieved using the […]® (mouse-HRP/rabbit-AP) IHC kit (Catalog #: ADI-950-100, ENZO Lifesciences, Farmingdale, N.Y., USA). For each marker, to confirm the specificity of the antibodies, a separate set of sections from each group were incubated with only the secondary antibodies, a condition in which no staining was present.
Quantitative analysis of staining intensity: Images of the IHC stained sections were captured using the NIKON Multiphoton microscope with attached DS Ri2 camera. Five areas encompassing the hippocampus of each brain section were analyzed using the ImageJ Software. The number and the relative optical density of Iba1+ and GFAP+ glial cells was determined using the multi-point tool and the IHC-tool box. A training for brown/red color was performed prior to measurement to define the threshold for positive selection. Regions of interest encompassing the hippocampus were identified in each section, and the corresponding images were quantified using integrated optical density, normalized to the background optical density. Measurement of pixel intensity was restricted to the DAB or AP stained pixels of cells within defined circularity. Five consecutive coronal sections were assessed for each mouse.

HFNC = assay: Morphology of HFNC under inverted bright field microscope; format: cell-based, human
U373 cells = format: cell-based, human
Procedure: Lactate dehydrogenase (LDH) assay: To detect direct GA-induced cell lysis we performed LDH release assays (Roche Molecular Diagnostics). […] Approximately 5×10^4 U373 cells/well were cultured in 96-well plates in the presence of increasing concentrations of individual GA or control peptide from 0.5 μM to 500 μM. Cells treated with 2% triton-X 100 (Sigma Aldrich, St. Louis, Mo.) for 10 minutes served as positive control. Untreated cells served as controls for spontaneous LDH-release. Specific LDH-release was calculated according to the following formula: LDH-release %=100*(GA or control peptide treated cells—untreated cells)/(positive control-untreated cells). The IC50 values were extrapolated by logarithmic estimation. The LD50 in mg/kg was predicted using the formula, Log (LD50)=0.506×(log IC50)+0.475.
Effects of PGA on membrane integrity and apoptosis: The top five PGA were covalently synthesized with the cell penetrating TAT (transcriptional transactivation) peptide to facilitate intracellular delivery (Genescript, N.J.). Membrane integrity of U373 microglial cells exposed to increasing concentration of each PGA from 0.5 μm to 500 μM was assessed by the leakage of intracellular lactate dehydrogenase (LDH) into culture medium (Roche, Ind.).

[3] = Example 9, PGA synthesized with TAT, read-out: IC50 of LDH release extrapolated from regression analysis
[4] = concentration stated for use in HFNC cultures, Example 11, read-out: IC50 concentration

| Substance | IFN-γ in brain tissue [1] | IL-6 in brain tissue homogenates [1] | IL-12 in brain homogenates [1] | TNF-α in brain homogenates [1] | CD11b+p65+ glial cells in the hippocampus [2] | GFAP+ astroglial cells in the hippocampus [2] | Iba1+ microglial cells in the hippocampus [2] | morphology of HFNC (HFNC) | pIC50 (U373 cells; [3]) | pIC50 (U373 cells; [4]) |
| --- | --- | --- | --- | --- | --- | --- | --- | --- | --- | --- |
| Ac-EPAPESPQV-NH2 [GA-2] | 3125.1 ± 815 pg/mL | 19.6 ± 0.84 pg/mL | 101.3 ± 15.9 pg/mL | 1199.2 ± 356.4 pg/mL | significantly reduced in number and intensity | reduced | reduced |  |  |  |
| Ac-EPAPLAPYG-NH2 [PGA-2] |  |  |  |  |  |  |  | did not affect the morphology | 5.71 | 3.77 |
| Ac-EPAPLAPYG-NH2 [GA-1] | 2863.2 ± 697.5 pg/mL | 18.7 ± 2 pg/mL | 92.0 ± 9.3 pg/mL | 1500.1 ± 476 pg/mL | significantly reduced in number and intensity | reduced | reduced |  |  |  |
| Ac-EPAPESPQV-NH2 [PGA-4] |  |  |  |  |  |  |  | did not affect the morphology | 5.82 | 3.99 |
